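How tested: cells in 96-well plates exposed to compound for 48 hours at five concentrations. GI50 marks 50% less growth.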 The source made the active and inactive calls. No stated cut-off is given here; in the data, active = GI50 up to about 1.1 µM and inactive = higher.
Assays:
Assay in all cases: NCI-60 cell line screen, 48 h
RXF 631 = tested on: RXF 631
XF498 = tested on: XF498
KM-20L2 = tested on: KM-20L2
DLD-1 = tested on: DLD-1
DMS-273 = tested on: DMS-273
SNB-78 = tested on: SNB-78
DMS-114 = tested on: DMS-114
BT-549 = tested on: BT-549
HOP-18 = tested on: HOP-18

Structure (SMILES) | GI50 (RXF 631) | GI50 (XF498) | GI50 (KM-20L2) | GI50 (DLD-1) | GI50 (DMS-273) | GI50 (SNB-78) | GI50 (DMS-114) | GI50 (BT-549) | GI50 (HOP-18)
CNC(=O)CN(CC(N)=O)C(N)=O | > 100 µM (inactive) | > 100 µM (inactive) | > 100 µM (inactive) | > 100 µM (inactive) | > 100 µM (inactive) | > 100 µM (inactive) | – | – | –
O=C1C(CN2CCOCC2)CCCC1CN1CCOCC1 (configuration not stated) | 10.5 µM (inactive) | – | 6.43 µM (inactive) | 0.67 µM (active) | 8.11 µM (inactive) | 2.35 µM (inactive) | 5.61 µM (inactive) | 1.96 µM (inactive) | 1.81 µM (inactive)
NC(=S)N1N=C2c3ccccc3CC[C@@H]2[C@@H]1c1ccccc1 | 7.85 µM (inactive) | – | 4.22 µM (inactive) | 6.5 µM (inactive) | 2.19 µM (inactive) | 28.1 µM (inactive) | 2.45 µM (inactive) | – | 20.8 µM (inactive)
CCCCN(CCCC)C(=Nc1ccccc1)N(CCCC)CCCC | 10.5 µM (inactive) | 2.05 µM (inactive) | 0.851 µM (active) | 6.38 µM (inactive) | 4.61 µM (inactive) | 11.1 µM (inactive) | 1.59 µM (inactive) | – | 1.76 µM (inactive)
CC(C)OCN/C(N)=N\C#N | > 100 µM (inactive) | > 100 µM (inactive) | > 100 µM (inactive) | 59.7 µM (inactive) | 49.2 µM (inactive) | > 100 µM (inactive) | > 100 µM (inactive) | – | > 100 µM (inactive)
Nc1n/c(=N\c2ccccc2)ss1 | > 100 µM (inactive) | > 100 µM (inactive) | > 100 µM (inactive) | > 100 µM (inactive) | > 100 µM (inactive) | > 100 µM (inactive) | > 100 µM (inactive) | – | > 100 µM (inactive)
O=C(c1ccccc1)C1S(=O)(=O)OCCOS1(=O)=O | > 100 µM (inactive) | > 100 µM (inactive) | – | > 100 µM (inactive) | > 100 µM (inactive) | > 100 µM (inactive) | > 100 µM (inactive) | – | –
CC(=O)OCCOCBr | > 100 µM (inactive) | > 100 µM (inactive) | > 100 µM (inactive) | > 100 µM (inactive) | > 100 µM (inactive) | – | > 100 µM (inactive) | – | > 100 µM (inactive)
CC(=O)OCCC(O[Si](c1ccccc1)(c1ccccc1)C(C)(C)C)C(C)(C)O (configuration not stated) | 34.3 µM (inactive) | 29.4 µM (inactive) | 32.3 µM (inactive) | – | 27 µM (inactive) | 59.4 µM (inactive) | 19.9 µM (inactive) | – | 25.2 µM (inactive)
COC(=O)/C=C/c1c(CC=C(C)C)ncn1C | 59 µM (inactive) | 41.3 µM (inactive) | 16.7 µM (inactive) | 29.8 µM (inactive) | 8.38 µM (inactive) | 53.2 µM (inactive) | 5.38 µM (inactive) | – | > 100 µM (inactive)
CC(=O)OC1CC[C@@]2(C)C(CC[C@]3(C)C2CC=C2[C@@H]4C(C)[C@H](C)CCC4(C)CCC23C)[C@@]1(C)C(=O)O (some centres not stated) | 23.9 µM (inactive) | 16.9 µM (inactive) | 16.2 µM (inactive) | 18.7 µM (inactive) | 21.2 µM (inactive) | 26.5 µM (inactive) | 18.4 µM (inactive) | 25 µM (inactive) | 16.3 µM (inactive)

Source: ChEMBL document CHEMBL1201862, “PubChem BioAssay data set” (2004)
